Tested on: H9-derived RPE cells
Conditions: increasing concentrations 10 μM, 25 µM and 50 μM in maturation medium, versus unsupplemented medium
Method: RPE pigmentation levels of cells at different stages of differentiation, but usually day 49 mature (d) RPE, could be analysed by a melanin content assay. […] A total of 4×10^5 RPE were added per well of a 96 well u bottom plate and centrifuged at 500×g for 3 minutes. Once the supernatant was removed, cells were resuspended in 100 μL of D-PBS and transferred to a 96 well tissue culture plate. RPE were centrifuged at 300×g for 3 minutes and absorbance was measured at 490 nm. Melanin content was calculated relative to the synthetic standard.

ferric ammonium citrate
melanogenesis (brightfield microscopy and melanin content assay): increasing levels of melanogenesis
